Activity calls are given as the source filed them. No cut-off for these calls is given here.
Tests used:
[1] = Intrinsic clearance in cryopreserved human hepatocytes measured per 10^6 cells; assay type: ADME, cell-based, Hepatocyte; conditions: read-out: CLH
[2] = Volume of distribution in mouse at 5 umol/kg, iv administered as bolus dose in 20 to 30% DMA in PBS; assay type: ADME, organism-based; conditions: in vivo
[3] = target: T1, Phosphatidylinositol 4,5-bisphosphate 3-kinase catalytic subunit alpha isoform (Homo sapiens, UniProt P42336); assay: Inhibition of PI3Kalpha mutant human BT474 cells assessed as inhibition of Akt phosphorylation at […] after 2 hrs; assay type: cell-based; conditions: bt-474
Target sequence in this assay (P42336 whole entry, looked up, canonical isoform): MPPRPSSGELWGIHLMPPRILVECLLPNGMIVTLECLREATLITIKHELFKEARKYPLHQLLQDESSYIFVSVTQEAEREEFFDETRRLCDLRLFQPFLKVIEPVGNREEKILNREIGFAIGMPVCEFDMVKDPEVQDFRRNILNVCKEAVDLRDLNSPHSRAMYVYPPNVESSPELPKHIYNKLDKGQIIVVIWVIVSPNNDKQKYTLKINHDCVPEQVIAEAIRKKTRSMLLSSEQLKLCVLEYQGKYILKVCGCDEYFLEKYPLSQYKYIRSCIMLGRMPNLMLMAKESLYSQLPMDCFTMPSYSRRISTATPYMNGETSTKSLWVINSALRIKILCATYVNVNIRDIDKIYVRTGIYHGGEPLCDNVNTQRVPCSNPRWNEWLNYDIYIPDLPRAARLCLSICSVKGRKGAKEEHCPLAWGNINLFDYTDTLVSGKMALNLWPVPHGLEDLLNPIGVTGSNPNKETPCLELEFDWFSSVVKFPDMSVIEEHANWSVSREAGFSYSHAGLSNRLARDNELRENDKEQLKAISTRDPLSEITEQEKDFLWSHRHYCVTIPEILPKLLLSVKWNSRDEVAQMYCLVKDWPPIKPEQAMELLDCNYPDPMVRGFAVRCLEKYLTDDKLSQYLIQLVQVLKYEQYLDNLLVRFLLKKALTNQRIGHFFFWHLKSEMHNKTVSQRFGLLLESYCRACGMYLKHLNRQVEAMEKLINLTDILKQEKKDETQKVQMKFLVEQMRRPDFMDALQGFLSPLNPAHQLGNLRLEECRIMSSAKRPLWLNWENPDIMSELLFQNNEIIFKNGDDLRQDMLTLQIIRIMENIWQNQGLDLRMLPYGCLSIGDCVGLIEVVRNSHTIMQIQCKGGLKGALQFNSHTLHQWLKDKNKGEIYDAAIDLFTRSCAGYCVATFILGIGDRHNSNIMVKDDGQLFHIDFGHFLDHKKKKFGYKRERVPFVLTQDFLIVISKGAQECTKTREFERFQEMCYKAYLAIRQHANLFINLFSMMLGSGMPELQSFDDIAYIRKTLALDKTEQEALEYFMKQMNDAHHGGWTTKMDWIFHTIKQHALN

[4] = Fraction unbound in dog plasma; assay type: ADME, cell-free, Canis lupus familiaris
[5] = AUC in mouse at 30 umol/kg, po administered as propylene glycol; assay type: ADME, organism-based; conditions: plasma
[6] = target: T2, Phosphatidylinositol 4,5-bisphosphate 3-kinase catalytic subunit beta isoform (Homo sapiens, UniProt P42338); assay: Inhibition of PI3Kbeta in PTEN-null human MDA-MB-468 cells assessed as inhibition of Akt phosphorylation after 2 hrs; assay type: cell-based
T2 sequence (P42338 whole entry, canonical isoform): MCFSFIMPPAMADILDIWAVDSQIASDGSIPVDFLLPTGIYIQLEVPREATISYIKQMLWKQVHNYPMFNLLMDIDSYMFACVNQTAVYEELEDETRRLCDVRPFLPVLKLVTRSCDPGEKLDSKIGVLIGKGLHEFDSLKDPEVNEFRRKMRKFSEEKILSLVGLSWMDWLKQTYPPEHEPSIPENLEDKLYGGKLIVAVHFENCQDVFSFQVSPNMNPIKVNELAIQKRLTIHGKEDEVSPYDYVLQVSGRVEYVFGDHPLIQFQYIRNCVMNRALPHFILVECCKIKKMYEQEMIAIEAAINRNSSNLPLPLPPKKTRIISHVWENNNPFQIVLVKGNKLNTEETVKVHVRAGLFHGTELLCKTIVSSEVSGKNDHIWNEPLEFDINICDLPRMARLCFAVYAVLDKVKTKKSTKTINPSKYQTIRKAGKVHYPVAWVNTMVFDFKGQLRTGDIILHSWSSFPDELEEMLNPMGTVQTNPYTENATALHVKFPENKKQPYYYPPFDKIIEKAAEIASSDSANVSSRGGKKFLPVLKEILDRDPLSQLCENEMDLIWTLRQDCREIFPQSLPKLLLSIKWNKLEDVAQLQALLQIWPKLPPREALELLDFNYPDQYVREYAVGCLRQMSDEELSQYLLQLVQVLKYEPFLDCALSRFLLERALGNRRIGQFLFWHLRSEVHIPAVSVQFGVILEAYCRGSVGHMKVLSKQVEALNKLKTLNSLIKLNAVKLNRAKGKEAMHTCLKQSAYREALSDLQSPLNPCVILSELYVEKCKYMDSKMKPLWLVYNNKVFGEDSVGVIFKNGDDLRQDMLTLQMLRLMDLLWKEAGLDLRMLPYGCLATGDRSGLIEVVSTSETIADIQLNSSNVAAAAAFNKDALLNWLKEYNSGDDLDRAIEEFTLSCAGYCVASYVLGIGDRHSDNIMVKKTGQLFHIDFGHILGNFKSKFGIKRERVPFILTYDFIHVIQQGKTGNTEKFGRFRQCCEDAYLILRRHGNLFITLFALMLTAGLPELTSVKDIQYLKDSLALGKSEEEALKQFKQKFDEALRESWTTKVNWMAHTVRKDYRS

[7] = Clearance in mouse at 5 umol/kg, iv administered as bolus dose in 20 to 30% DMA in PBS; assay type: ADME, organism-based; conditions: in vivo
[8] = Clearance in dog at 5 umol/kg, iv administered as bolus dose in 20 to 30% DMA in PBS; assay type: ADME, organism-based, Canis lupus familiaris; conditions: in vivo
Canis familiaris = assay: Intrinsic clearance in dog at 5 umol/kg, iv administered as bolus dose in 20 to 30% DMA in PBS; assay type: ADME, organism-based, Canis lupus familiaris; conditions: in vivo
[9] = Apparent permeability from apical to basolateral side of human Caco2 cells; assay type: ADME, cell-based; conditions: Caco-2, read-out: permeability
[10] = Oral bioavailability in dog at 30 umol/kg administered as propylene glycol; assay type: ADME, organism-based, Canis lupus familiaris; conditions: in vivo
Mus musculus [11] = assay: Intrinsic clearance in mouse at 5 umol/kg, iv administered as bolus dose in 20 to 30% DMA in PBS; assay type: ADME, organism-based; conditions: in vivo
[12] = target: T1, Phosphatidylinositol 4,5-bisphosphate 3-kinase catalytic subunit alpha isoform; assay: Inhibition of human recombinant PI3Kalpha using PIP2 by Kinase-Glo Plus assay
Target sequence in this assay (P42336 whole entry, canonical isoform): as the sequence (P42336 whole entry, looked up, canonical isoform) above

[13] = Fraction unbound in mouse plasma; assay type: ADME, cell-free
[14] = target: T2, Phosphatidylinositol 4,5-bisphosphate 3-kinase catalytic subunit beta isoform; assay: Inhibition of human recombinant PI3Kbeta using PIP2 by Kinase-Glo Plus assay
[15] = target: T3, Phosphatidylinositol 4,5-bisphosphate 3-kinase catalytic subunit delta isoform (Homo sapiens, UniProt O00329); assay: Inhibition of human recombinant PI3Kdelta using PIP2 by Kinase-Glo Plus assay
T3 sequence (O00329 whole entry): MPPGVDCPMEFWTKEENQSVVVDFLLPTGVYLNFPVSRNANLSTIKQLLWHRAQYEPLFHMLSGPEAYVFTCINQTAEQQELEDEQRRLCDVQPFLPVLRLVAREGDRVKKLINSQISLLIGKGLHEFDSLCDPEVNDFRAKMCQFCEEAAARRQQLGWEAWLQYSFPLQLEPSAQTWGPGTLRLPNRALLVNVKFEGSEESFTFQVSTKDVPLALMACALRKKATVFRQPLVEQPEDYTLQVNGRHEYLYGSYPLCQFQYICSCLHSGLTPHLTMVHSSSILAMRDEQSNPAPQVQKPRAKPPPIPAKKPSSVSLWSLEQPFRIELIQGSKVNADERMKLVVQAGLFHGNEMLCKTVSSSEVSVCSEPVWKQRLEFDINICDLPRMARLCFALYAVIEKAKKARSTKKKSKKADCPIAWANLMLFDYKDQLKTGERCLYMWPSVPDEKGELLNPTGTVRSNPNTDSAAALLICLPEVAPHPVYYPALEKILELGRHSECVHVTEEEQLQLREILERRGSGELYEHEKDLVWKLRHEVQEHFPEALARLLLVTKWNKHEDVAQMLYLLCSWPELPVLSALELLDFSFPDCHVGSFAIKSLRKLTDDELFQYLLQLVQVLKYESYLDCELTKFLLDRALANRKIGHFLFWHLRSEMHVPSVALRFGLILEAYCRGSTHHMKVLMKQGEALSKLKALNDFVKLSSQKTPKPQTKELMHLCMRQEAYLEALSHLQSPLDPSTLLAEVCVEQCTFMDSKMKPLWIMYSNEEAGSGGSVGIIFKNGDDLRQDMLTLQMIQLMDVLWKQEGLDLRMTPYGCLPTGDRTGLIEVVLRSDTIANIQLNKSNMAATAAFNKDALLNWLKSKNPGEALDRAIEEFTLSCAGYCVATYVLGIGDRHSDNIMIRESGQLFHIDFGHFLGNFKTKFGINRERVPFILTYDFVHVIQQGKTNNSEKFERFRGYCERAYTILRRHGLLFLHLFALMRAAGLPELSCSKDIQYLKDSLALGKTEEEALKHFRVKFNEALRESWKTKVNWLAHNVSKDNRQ

[16] = Lipophilicity, log D of the compound at pH 7.4 by shake-flask method; assay type: physicochemical; conditions: buffer
[17] = Volume of distribution in dog at 5 umol/kg, iv administered as bolus dose in 20 to 30% DMA in PBS; assay type: ADME, organism-based, Canis lupus familiaris; conditions: in vivo
[18] = target: Phosphatidylinositol 4,5-bisphosphate 3-kinase catalytic subunit gamma isoform (Homo sapiens, UniProt P48736); assay: Inhibition of human recombinant PI3Kgamma using PIP2 by Kinase-Glo Plus assay
Sequence of Phosphatidylinositol 4,5-bisphosphate 3-kinase catalytic subunit gamma isoform (P48736 whole entry, canonical isoform): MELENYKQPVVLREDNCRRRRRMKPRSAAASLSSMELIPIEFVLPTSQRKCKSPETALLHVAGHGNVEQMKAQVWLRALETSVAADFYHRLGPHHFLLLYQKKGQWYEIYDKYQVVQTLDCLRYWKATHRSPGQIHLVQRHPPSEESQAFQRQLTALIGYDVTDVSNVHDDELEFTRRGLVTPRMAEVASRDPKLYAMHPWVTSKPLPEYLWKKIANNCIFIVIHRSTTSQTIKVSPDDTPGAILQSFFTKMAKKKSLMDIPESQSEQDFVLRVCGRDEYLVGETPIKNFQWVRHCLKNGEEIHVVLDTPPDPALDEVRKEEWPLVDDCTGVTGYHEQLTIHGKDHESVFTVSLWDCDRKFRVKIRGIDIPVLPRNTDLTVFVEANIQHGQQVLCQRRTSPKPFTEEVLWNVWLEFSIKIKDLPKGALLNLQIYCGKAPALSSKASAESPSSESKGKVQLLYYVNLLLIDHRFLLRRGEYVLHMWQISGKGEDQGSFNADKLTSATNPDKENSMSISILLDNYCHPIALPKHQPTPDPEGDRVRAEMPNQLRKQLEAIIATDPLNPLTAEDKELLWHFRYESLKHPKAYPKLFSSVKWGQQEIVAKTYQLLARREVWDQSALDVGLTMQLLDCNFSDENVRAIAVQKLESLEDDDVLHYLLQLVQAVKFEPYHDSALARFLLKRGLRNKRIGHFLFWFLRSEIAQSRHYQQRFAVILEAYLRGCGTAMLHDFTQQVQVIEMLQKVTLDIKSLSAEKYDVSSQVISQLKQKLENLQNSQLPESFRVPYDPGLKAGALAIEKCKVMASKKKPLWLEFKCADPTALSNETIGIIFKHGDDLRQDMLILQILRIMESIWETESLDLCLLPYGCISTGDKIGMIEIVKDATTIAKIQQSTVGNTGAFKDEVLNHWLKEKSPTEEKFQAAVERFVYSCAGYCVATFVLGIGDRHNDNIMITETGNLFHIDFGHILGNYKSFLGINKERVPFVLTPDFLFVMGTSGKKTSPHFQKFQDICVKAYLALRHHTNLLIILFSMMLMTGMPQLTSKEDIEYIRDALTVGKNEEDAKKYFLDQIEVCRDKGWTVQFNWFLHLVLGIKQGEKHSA

[19] = Fraction unbound in human plasma; assay type: ADME, cell-free
[20] = Oral bioavailability in mouse at 30 umol/kg administered as propylene glycol; assay type: ADME, organism-based; conditions: in vivo
[21] = target: T4, Voltage-gated inwardly rectifying potassium channel KCNH2 (Homo sapiens, UniProt Q12809); assay: Inhibition of human ERG channel
T4 sequence (Q12809 whole entry): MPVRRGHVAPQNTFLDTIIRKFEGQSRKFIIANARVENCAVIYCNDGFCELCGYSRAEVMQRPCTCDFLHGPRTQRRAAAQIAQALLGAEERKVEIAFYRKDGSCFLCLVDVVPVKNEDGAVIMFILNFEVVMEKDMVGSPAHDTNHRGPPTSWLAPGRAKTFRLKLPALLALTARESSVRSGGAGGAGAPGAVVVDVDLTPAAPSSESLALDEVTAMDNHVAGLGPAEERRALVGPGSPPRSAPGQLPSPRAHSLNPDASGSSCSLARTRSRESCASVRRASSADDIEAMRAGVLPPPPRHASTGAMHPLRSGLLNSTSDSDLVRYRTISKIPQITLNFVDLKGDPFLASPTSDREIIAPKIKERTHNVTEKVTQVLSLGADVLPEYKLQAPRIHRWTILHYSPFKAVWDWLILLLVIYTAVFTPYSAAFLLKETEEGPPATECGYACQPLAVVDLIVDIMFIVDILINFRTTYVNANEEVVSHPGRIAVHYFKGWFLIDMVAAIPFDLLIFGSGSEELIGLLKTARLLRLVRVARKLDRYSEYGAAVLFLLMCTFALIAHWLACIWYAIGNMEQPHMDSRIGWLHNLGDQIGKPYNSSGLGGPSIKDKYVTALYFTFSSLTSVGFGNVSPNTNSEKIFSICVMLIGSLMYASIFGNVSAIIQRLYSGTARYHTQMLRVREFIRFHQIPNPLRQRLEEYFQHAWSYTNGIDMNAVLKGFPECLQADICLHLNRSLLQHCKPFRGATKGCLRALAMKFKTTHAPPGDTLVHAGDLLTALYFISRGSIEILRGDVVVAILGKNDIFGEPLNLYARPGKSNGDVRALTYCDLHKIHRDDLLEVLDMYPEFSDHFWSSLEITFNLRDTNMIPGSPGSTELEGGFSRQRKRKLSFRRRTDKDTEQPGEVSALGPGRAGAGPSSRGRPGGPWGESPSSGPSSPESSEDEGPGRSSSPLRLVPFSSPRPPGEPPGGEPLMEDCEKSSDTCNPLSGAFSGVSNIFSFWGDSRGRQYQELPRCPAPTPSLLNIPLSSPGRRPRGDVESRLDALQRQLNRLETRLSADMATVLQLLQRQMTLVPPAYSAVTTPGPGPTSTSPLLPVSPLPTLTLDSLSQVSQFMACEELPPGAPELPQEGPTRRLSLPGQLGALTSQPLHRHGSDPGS

BT-474 = assay: Selectivity ratio of IC50 for human PI3Kbeta in human MDA-MB-468 cells to IC50 for PI3Kalpha in human BT474 cells; assay type: cell-based
Mus musculus [22] = assay: Inhibition of Akt phosphorylation at Ser473 in PTEN-deficient human PC3 cells xenograft mouse model at 100 mg/kg, po single dose measured up to 8 hrs; assay type: functional, organism-based; set-up: dose 100 mg/kg; conditions: PC-3
[23] = target: T4, Voltage-gated inwardly rectifying potassium channel KCNH2; assay: Inhibition of human ERG channel at 100 uM
[24] = target: T3, Phosphatidylinositol 4,5-bisphosphate 3-kinase catalytic subunit delta isoform; assay: Inhibition of PI3Kdelta in human Jeko B cells assessed as inhibition of Akt phosphorylation after 2 hrs; assay type: cell-based
PC-3 [25] = assay: Antitumor activity against human PC3 cells xenograft mouse model assessed as inhibition of tumor growth at 30 mg/kg, po bid in presence of 1-aminobenzotriazole; assay type: functional, organism-based; set-up: dose 30 mg/kg
PC-3 [26] = assay: Antitumor activity against human PC3 cells xenograft mouse model assessed as inhibition of tumor growth at 60 mg/kg, po bid in presence of 1-aminobenzotriazole; assay type: functional, organism-based; set-up: dose 60 mg/kg

| Structure (SMILES) | hepatocyte CLint [1] | Vd [2] | IC50 [3] | fraction unbound [4] | AUC [5] | IC50 [6] | clearance [7] | clearance [8] | clearance (Canis familiaris) | Papp A→B [9] | bioavailability [10] | clearance (Mus musculus [11]) | IC50 [12] | fraction unbound [13] | IC50 [14] | IC50 [15] | logD [16] | IC50 [18] | fraction unbound [19] | bioavailability [20] | further results |
| --- | --- | --- | --- | --- | --- | --- | --- | --- | --- | --- | --- | --- | --- | --- | --- | --- | --- | --- | --- | --- | --- |
| C[C@H]1CN(c2cc(=O)c3cc(C(=O)N(C)C)cc([C@@H](C)Nc4cc(F)cc(F)c4)c3o2)CCO1 | < 3 µL/min/1e6 cells | 2.2 L/kg | 0.11 µM | 0.2 | 3.3 µM·h | 0.0004 µM | 76 mL/min/kg | 69 mL/min/kg | 15 mL/min/kg | 14 ×10⁻⁶ cm/s | 5% | 53 mL/min/kg | 0.012 µM | 0.12 | 0.004 µM | 0.012 µM | 2.7 | 0.14 µM | 0.14 | 50% | Vd [17]: 2.5 L/kg |
| C[C@@H](Nc1cc(F)cc(Cl)c1)c1cc(C(=O)N(C)C)cc2c(=O)cc(N3CCOCC3)oc12 | 12 µL/min/1e6 cells | 3.5 L/kg | 0.17 µM | 0.14 | 0.8 µM·h | – | 134 mL/min/kg | – | – | 11 ×10⁻⁶ cm/s | – | 147 mL/min/kg | 0.025 µM | 0.04 | – | 0.028 µM | 2.8 | 0.21 µM | 0.06 | 23% | – |
| C[C@H](c1cc(C(=O)N(C)C)cc2c(=O)cc(N3CCOCC3)oc12)N(C)c1cc(F)cc(F)c1 | < 4 µL/min/1e6 cells | 2 L/kg | 3 µM | 0.16 | 8.6 µM·h | – | 34 mL/min/kg | 27 mL/min/kg | 17 mL/min/kg | 42 ×10⁻⁶ cm/s | 31% | 37 mL/min/kg | 0.28 µM | 0.1 | – | 0.073 µM | 2.4 | 3.5 µM | 0.12 | 68% | IC50 [21]: 19 µM; Vd [17]: 2.2 L/kg |
| CN(C)C(=O)c1cc(CNc2cc(F)cc(F)c2)c2oc(N3CCOCC3)cc(=O)c2c1 | < 3 µL/min/1e6 cells | – | 3.2 µM | – | – | 0.035 µM | – | – | – | – | – | – | 0.093 µM | – | 0.008 µM | 0.08 µM | 2.2 | 3.2 µM | – | – | Ratio IC50 (BT-474): 100 |
| C[C@H](c1cc(C(=O)N2CCC(O)CC2)cc2c(=O)cc(N3CCOCC3)oc12)N(C)c1cc(F)cc(F)c1 | < 3 µL/min/1e6 cells | – | 4.8 µM | 0.23 | 0.8 µM·h | 0.012 µM | – | – | – | 4.6 ×10⁻⁶ cm/s | – | – | 0.37 µM | 0.18 | 0.007 µM | 0.082 µM | 2.4 | 1.6 µM | 0.17 | – | – |
| C[C@@H](Nc1cc(F)cc(F)c1F)c1cc(C(=O)N(C)C)cc2c(=O)cc(N3CCOCC3)oc12 | < 5 µL/min/1e6 cells | 1.7 L/kg | 0.9 µM | 0.43 | 1.5 µM·h | 0.006 µM | 137 mL/min/kg | 28 mL/min/kg | 16 mL/min/kg | 16 ×10⁻⁶ cm/s | 47% | 99 mL/min/kg | 0.14 µM | 0.28 | 0.008 µM | 0.041 µM | 2.3 | 1.5 µM | 0.27 | 42% | Vd [17]: 2.2 L/kg |
| C[C@@H](Nc1cccc(Cl)c1F)c1cc(C(=O)N(C)C)cc2c(=O)cc(N3CCOCC3)oc12 | < 3 µL/min/1e6 cells | 1.7 L/kg | 0.5 µM | 0.26 | 0.9 µM·h | 0.02 µM | 81 mL/min/kg | – | – | 21 ×10⁻⁶ cm/s | – | 64 mL/min/kg | 0.028 µM | – | 0.005 µM | 0.022 µM | 2.3 | 0.32 µM | 0.15 | 19% | – |
| C[C@@H](Nc1ccc(F)c(F)c1)c1cc(C(=O)N(C)C)cc2c(=O)cc(N3CCOCC3)oc12 | < 3 µL/min/1e6 cells | 1.7 L/kg | 2.5 µM | 0.34 | 0.8 µM·h | 0.017 µM | 112 mL/min/kg | – | – | 6.5 ×10⁻⁶ cm/s | – | 57 mL/min/kg | 0.17 µM | 0.25 | 0.007 µM | 0.032 µM | 1.9 | 2.5 µM | 0.27 | 19% | – |
| C[C@H](c1cc(C(=O)N(C)CCO)cc2c(=O)cc(N3CCOCC3)oc12)N(C)c1cc(F)cc(F)c1 | < 3 µL/min/1e6 cells | – | 4.7 µM | 0.23 | 0.7 µM·h | – | – | – | – | 7 ×10⁻⁶ cm/s | – | – | 0.18 µM | 0.15 | – | 0.053 µM | 2.1 | 1.2 µM | 0.17 | – | – |
| C[C@@H](Nc1cc(F)cc(F)c1)c1cc(C(=O)N(C)C)cc2c(=O)cc(N3CCOCC3)oc12 [AZD-8186] | 4 µL/min/1e6 cells | 1.3 L/kg | 0.752 µM | 0.31 | 1.2 µM·h | – | 77 mL/min/kg | 36 mL/min/kg | 11 mL/min/kg | 8 ×10⁻⁶ cm/s | 23% | 73 mL/min/kg | 0.035 µM | 0.16 | – | 0.012 µM | 2.3 | 0.675 µM | 0.19 | 18% | inhibition (Mus musculus [22]): Active; inhibition (INH) [23]: Not Active; IC50 [24]: 0.017 µM; inhibition (PC-3 [25]): Active; Vd [17]: 2.2 L/kg; inhibition (PC-3 [26]): Active |

From ChEMBL document CHEMBL3407416, “Discovery of (R)-8-(1-(3,5-difluorophenylamino)ethyl)-N,N-dimethyl-2-morpholino-4-oxo-4H-chromene-6-carboxamide (AZD8186): a potent and selective inhibitor of PI3Kβ and PI3Kδ for the treatment of PTEN-deficient cancers” (J Med Chem, 2015)
